In patent US20200031778A1, “NOVEL 5-SUBSTITUTED IMIDAZOLYLMETHYL DERIVATIVES” (Bayer CropScience Aktiengesellschaft, priority 2016, published 2020):

How the values were obtained:
[1] = test system: Sphaerotheca fuliginea; assay: Example D: in vivo preventive test on Sphaerotheca fuliginea (powdery mildew on cucurbits); details: Podosphaera fuliginea, 360 h, read-out: efficacy
Experimental: Example D: In Vivo Preventive Test on Sphaerotheca Fuliginea (Powdery Mildew on Cucurbits)
(§1) The active ingredients were made soluble and homogenized in a mixture of Dimethyl sulfoxide/Acetone/Tween® 80 and then diluted in water to the desired concentration.
The young plants of gherkin were treated by spraying the active ingredient prepared as described above. Control plants were treated only with an aqueous solution of Acetone/Dimethyl sulfoxide/Tween® 80.
After 24 hours, the plants were contaminated by spraying the leaves with an aqueous suspension of Sphaerotheca fuliginea spores. The contaminated gherkin plants were incubated for 72 hours at 18° C. and at 100% relative humidity and then for 12 days at 20° C. and at 70-80% relative humidity.
The test was evaluated 15 days after the inoculation. 0% means an efficacy which corresponds to that of the control plants while an efficacy of 100% means that no disease was observed.

[2] = test system: Puccinia recondita; assay: Example B: in vivo preventive test on Puccinia recondita (brown rust on wheat); details: 264 h, read-out: efficacy
Experimental: Example B: In Vivo Preventive Test on Puccinia Recondita (Brown Rust on Wheat)
as §1
(§2) The young plants of wheat were treated by spraying the active ingredient prepared as described above. Control plants were treated only with an aqueous solution of Acetone/Dimethyl sulfoxide/Tween® 80.
After 24 hours, the plants were contaminated by spraying the leaves with an aqueous suspension of Puccinia recondita spores. The contaminated wheat plants were incubated for 24 hours at 20° C. and at 100% relative humidity and then for 10 days at 20° C. and at 70-80% relative humidity.
(§3) The test was evaluated 11 days after the inoculation. 0% means an efficacy which corresponds to that of the control plants while an efficacy of 100% means that no disease was observed.

[3] = test system: Septoria tritici; assay: Example C: in vivo preventive test on Septoria tritici (leaf spot on wheat); details: Zymoseptoria tritici, 576 h, read-out: efficacy
Experimental: Example C: In Vivo Preventive Test on Septoria Tritici (Leaf Spot on Wheat)
as §1, §2
After 24 hours, the plants were contaminated by spraying the leaves with an aqueous suspension of Septoria tritici spores. The contaminated wheat plants were incubated for 72 hours at 18° C. and at 100% relative humidity and then for 21 days at 20° C. and at 90% relative humidity.
The test was evaluated 24 days after the inoculation. 0% means an efficacy which corresponds to that of the control plants while an efficacy of 100% means that no disease was observed.

[4] = Log P by HPLC on reversed phase columns (EEC directive 79/831 Annex V.A8; methods [a], [b], [c]); assay type: physicochemical
Summary of the method: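 Reversed-phase HPLC with LC-UV detection, 10→95% acetonitrile linear gradient; aqueous eluent 0.1% formic acid [a], 0.001 M ammonium acetate, neutral [b], or 0.1% phosphoric acid [c]. Calibrated against C3–C16 alkan-2-ones of known Log P by retention-time linear interpolation; multiple values within a method separated by "+".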

[5] = test system: Uromyces appendiculatus; assay: Example E: in vivo preventive test on Uromyces appendiculatus (bean rust); details: 264 h, read-out: efficacy
Experimental: Example E: In Vivo Preventive Test on Uromyces Appendiculatus (Bean Rust)
as §1
The young plants of bean were treated by spraying the active ingredient prepared as described above. Control plants were treated only with an aqueous solution of Acetone/Dimethyl sulfoxide/Tween® 80.
After 24 hours, the plants were contaminated by spraying the leaves with an aqueous suspension of Uromyces appendiculatus spores. The contaminated bean plants were incubated for 24 hours at 20° C. and at 100% relative humidity and then for 10 days at 20° C. and at 70-80% relative humidity.
as §3

[6] = test system: Puccinia recondita; assay: Example IX-A: in vivo preventive test on Puccinia recondita (brown rust on wheat); details: 264 h, compounds of formula IX, 500 ppm of active ingredient, wheat plants, preventive spray, evaluated 11 days after inoculation, read-out: efficacy
Summary of the method: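 Young wheat plants sprayed with compound in DMSO/acetone/Tween 80 diluted in water, inoculated 24 h later with spore suspension. Incubated 24 h at 20 °C, 100% RH, then 10 days at 20 °C, 70-80% RH. Efficacy scored 11 days post-inoculation, 0% equal to solvent-treated controls, 100% no disease.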

[7] = test system: Sphaerotheca fuliginea; assay: Example IX-C: in vivo preventive test on Sphaerotheca fuliginea (powdery mildew on cucurbits); details: Podosphaera fuliginea, 360 h; compounds of formula IX; 500 ppm of active ingredient; gherkin plants, preventive spray; evaluated 15 days after inoculation; read-out: efficacy
Summary of the method: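 Young gherkin plants sprayed with compound in DMSO/acetone/Tween 80 diluted in water, then inoculated 24 h later with Sphaerotheca fuliginea spores. Kept 72 h at 18 °C/100% RH, then 12 days at 20 °C/70-80% RH; efficacy scored 15 days post-inoculation, 0% = control, 100% = no disease.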

[8] = test system: Septoria tritici; assay: Example IX-B: in vivo preventive test on Septoria tritici (leaf spot on wheat); details: Zymoseptoria tritici, 576 h; compounds of formula IX; 500 ppm of active ingredient; wheat plants, preventive spray; evaluated 24 days after inoculation; read-out: efficacy
Summary of the method: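 Wheat seedlings sprayed preventively with compound dissolved in DMSO/acetone/Tween 80 and diluted in water; solvent-only controls. Spore suspension of S. tritici sprayed 24 h later; 72 h at 18 °C/100% RH, then 21 days at 20 °C/90% RH. Efficacy scored 24 days post-inoculation, 0% = control, 100% = no disease.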

[9] = test system: Uromyces appendiculatus; assay: Example IX-D: in vivo preventive test on Uromyces appendiculatus (bean rust); details: 264 h, compounds of formula IX, 500 ppm of active ingredient, bean plants, preventive spray, evaluated 11 days after inoculation, read-out: efficacy
Summary of the method: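 Young bean plants sprayed with compound (DMSO/acetone/Tween 80 in water), then inoculated 24 h later with Uromyces appendiculatus spores. Kept 24 h at 20° C, 100% RH, then 10 days at 20° C, 70–80% RH; efficacy scored 11 days post-inoculation, 0% = untreated control, 100% = no disease.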

[10] = reversed phase HPLC column, HPLC on reversed phase columns, method [a]
[11] = 500 ppm of active ingredient, gherkin plants, preventive spray, evaluated 15 days after inoculation
[12] = 500 ppm of active ingredient, wheat plants, preventive spray, evaluated 11 days after inoculation
[13] = 500 ppm of active ingredient, wheat plants, preventive spray, evaluated 24 days after inoculation
[14] = 500 ppm of active ingredient, bean plants, preventive spray, evaluated 11 days after inoculation
[15] = reversed phase HPLC column, method [a]: LC-UV, acidic range, 0.1% formic acid in water and acetonitrile as eluent (linear gradient from 10% to 95% acetonitrile)

chromatographic logP [4, 10]	chromatographic logP [4, 15]	SMILES	pest or weed control at 500 ppm [1, 11] [%]	pest or weed control at 500 ppm [3, 13] [%]	pest or weed control at 500 ppm [6] [%]	pest or weed control at 500 ppm [7] [%]	pest or weed control at 500 ppm [8] [%]	pest or weed control at 500 ppm [9] [%]	also measured
3.55		CC(O)(Cn1cncc1C#N)c1ccc(Oc2ccc(Br)cc2)cc1Cl (centres unmarked) [I-195, 3-[2-[4-(4-bromophenoxy)-2-chloro-phenyl]-2-hydroxy-propyl]imidazole-4-carbonitrile]	90 to 100	90 to 100					pest or weed control at 500 ppm [2, 12]: 90 to 100%; pest or weed control at 500 ppm [5, 14]: 90 to 100%
	4.03	O=C(Cn1cncc1C(F)(F)F)c1ccc(Oc2ccc(Cl)cc2)cc1Cl [IX-57]			90 to 100	90 to 100	90 to 100	80 to 89	
	3.55	N#Cc1cncn1CC(=O)c1ccc(Oc2ccc(Cl)cc2)cc1C(F)(F)F [IX-54]			90 to 100	90 to 100	90 to 100	70 to 79	
	3.35	O=C(Cn1cncc1Cl)c1ccc(Oc2ccc(I)cc2)cc1Br [IX-38]			90 to 100	90 to 100	90 to 100	90 to 100	
	3.07	O=C(Cn1cncc1Br)c1ccc(Oc2ccc(Cl)cc2)cc1Cl [IX-18]			90 to 100	90 to 100	90 to 100	90 to 100	
	3.13	O=C(Cn1cncc1Cl)c1ccc(Oc2ccc(Br)cc2)cc1Cl [IX-15, 1-[4-(4-bromophenoxy)-2-chloro-phenyl]-2-(5-chloroimidazol-1-yl)ethanone]			90 to 100	90 to 100	90 to 100	90 to 100	
	3.15	O=C(Cn1cncc1Cl)c1ccc(Oc2ccc(Cl)cc2)cc1Br [IX-34]			80 to 89	90 to 100	90 to 100	90 to 100	
	3.37	O=C(Cn1cncc1Cl)c1ccc(Oc2ccc(Br)cc2)cc1C(F)(F)F [IX-29]			90 to 100	80 to 89	90 to 100	80 to 89	

The next lines start with the molecule.

SMILES	chromatographic logP [4, 10]	chromatographic logP [4, 15]	pest or weed control at 500 ppm [1, 11] [%]	pest or weed control at 500 ppm [3, 13] [%]	pest or weed control at 500 ppm [6] [%]	pest or weed control at 500 ppm [7] [%]	pest or weed control at 500 ppm [8] [%]	pest or weed control at 500 ppm [9] [%]	also measured
N#Cc1cncn1CC(O)(c1ccc(-c2ccc(Cl)cc2)cc1Cl)C1(F)CC1 (centres unmarked) [I-393, 3-[2-[2-chloro-4-(4-chlorophenyl)phenyl]-2-(1-fluorocyclopropyl)-2-hydroxy-ethyl]imidazole-4-carbonitrile]	3.64								pest or weed control at 500 ppm [1]: 90 to 100%; pest or weed control at 500 ppm [2]: 90 to 100%; pest or weed control at 500 ppm [3]: 80 to 89%; pest or weed control at 500 ppm [5]: 90 to 100%
CCCCC(O)(Cn1cncc1C#N)c1ccc(Cl)cc1 (centres unmarked) [I-256, 3-[2-(4-chlorophenyl)-2-hydroxy-hexyl]imidazole-4-carbonitrile]	2.86		90 to 100	80 to 89					pest or weed control at 500 ppm [2, 12]: 80 to 89%; pest or weed control at 500 ppm [5, 14]: 90 to 100%
CC(=O)OC(Cn1cncc1F)c1cnc(Oc2ccc(Cl)cc2)cc1C(F)(F)F (centres unmarked) [I-133, [1-[6-(4-chlorophenoxy)-4-(trifluoromethyl)-3-pyridyl]-2-(5-fluoroimidazol-1-yl)ethyl]acetate]			90 to 100	90 to 100					pest or weed control at 500 ppm [2, 12]: 90 to 100%; pest or weed control at 500 ppm [5, 14]: 90 to 100%
N#Cc1cncn1CC(O)(C#CC1CCCCC1)C1(Cl)CC1 (centres unmarked) [I-542, 1-[2-(1-chlorocyclopropyl)-4-cyclohexyl-2-hydroxybut-3-yn-1-yl]-1H-imidazole-5-carbonitrile]									pest or weed control at 500 ppm [1]: 80 to 89%; chromatographic logP ([4]; HPLC on reversed phase column, method [a]): 2.96
C=CC(C)C(O)(Cn1cncc1C#N)C1(Cl)CC1 (centres unmarked) [I-311, 1-[2-(1-chlorocyclopropyl)-2-hydroxy-3-methylpent-4-en-1-yl]-1H-imidazole-5-carbonitrile]	2.21		90 to 100	90 to 100					pest or weed control at 500 ppm [2, 12]: 80 to 89%; pest or weed control at 500 ppm [5, 14]: 90 to 100%
COC(Cn1cncc1F)c1cnc(Oc2ccc(Cl)cc2)cc1C(F)(F)F (centres unmarked) [I-131, 2-(4-chlorophenoxy)-5-[2-(5-fluoroimidazol-1-yl)-1-methoxy-ethyl]-4-(trifluoromethyl)pyridine]	2.82		90 to 100	90 to 100					pest or weed control at 500 ppm [2, 12]: 90 to 100%
CCC(O)(Cn1cncc1C#N)c1ccc(F)cc1 (centres unmarked) [I-245, 3-[2-(4-fluorophenyl)-2-hydroxy-butyl]imidazole-4-carbonitrile]	1.57		90 to 100	90 to 100					
C[Si](C)(C)C#Cc1ccc(C(O)(Cn2cncc2C#N)C2(F)CC2)c(Cl)c1 (centres unmarked) [I-394, 3-[2-[2-chloro-4-(2-trimethylsilylethynyl)phenyl]-2-(1-fluorocyclopropyl)-2-hydroxy-ethyl]imidazole-4-carbonitrile]			90 to 100	90 to 100					chromatographic logP ([4]; HPLC on reversed phase columns, method [a]): 4.06
N#Cc1cncn1CC(=O)c1cnc(Oc2ccc(C(F)(F)F)cc2)cc1Br [IX-115]		3.37			90 to 100	90 to 100	90 to 100	90 to 100	
O=C(Cn1cncc1Cl)c1ccc(Oc2ccc(Br)cn2)cc1Cl [IX-79]		2.59			80 to 89	90 to 100	90 to 100	90 to 100	
O=C(Cn1cncc1Br)c1ccc(Oc2ccc(OC(F)(F)F)cc2)cc1Br [IX-06]		3.53			80 to 89	90 to 100	90 to 100	70 to 79	
